According to ChEMBL document CHEMBL1154380, “Lipocarbazoles, secondary metabolites from Tsukamurella pseudospumae Acta 1857 with antioxidative activity” (J Nat Prod, 2009):
Calls of active or inactive are those of the source. No cut-off for these calls is given here.

What was measured:
[1] = system: Botrytis cinerea; test: Antifungal activity against Botrytis cinerea Tu 157 at 1 mg/ml after 48 hrs by disk diffusion assay; assay type: functional, organism-based
[2] = system: Radical scavenging activity; test: Antioxidant activity assessed as DPPH radical scavenging activity after 30 mins; assay type: functional
[3] = system: Paenarthrobacter aurescens; test: Antibacterial activity against Arthrobacter aurescens DSM 20166 at 1 mg/ml after 24 hrs by disk diffusion assay; assay type: functional, organism-based
[4] = system: Bacillus subtilis; test: Antibacterial activity against Bacillus subtilis DSM 10 at 1 mg/ml after 24 hrs by disk diffusion assay; assay type: functional, organism-based
[5] = system: Brevibacillus brevis; test: Antibacterial activity against Brevibacillus brevis DSM 30 at 1 mg/ml after 24 hrs by disk diffusion assay; assay type: functional, organism-based
[6] = system: Staphylococcus aureus; test: Antibacterial activity against Staphylococcus aureus DSM 20231 at 1 mg/ml after 24 hrs by disk diffusion assay; assay type: functional, organism-based
[7] = system: Streptomyces viridochromogenes; test: Antibacterial activity against Streptomyces viridochromogenes Tu 57 at 1 mg/ml after 24 hrs by disk diffusion assay; assay type: functional, organism-based
[8] = system: Escherichia coli; test: Antibacterial activity against Escherichia coli K-12 at 1 mg/ml after 24 hrs by disk diffusion assay; assay type: functional, organism-based
[9] = system: Pseudomonas fluorescens; test: Antibacterial activity against Pseudomonas fluorescens DSM 50090 at 1 mg/ml after 24 hrs by disk diffusion assay; assay type: functional, organism-based
[10] = system: Proteus mirabilis; test: Antibacterial activity against Proteus mirabilis ATCC 35501 at 1 mg/ml after 24 hrs by disk diffusion assay; assay type: functional, organism-based
[11] = system: Candida albicans; test: Antifungal activity against Candida albicans Tu 164 at 1 mg/ml after 48 hrs by disk diffusion assay; assay type: functional, organism-based
[12] = system: Saccharomyces cerevisiae; test: Antifungal activity against Saccharomyces cerevisiae ATCC 9080 at 1 mg/ml after 48 hrs by disk diffusion assay; assay type: functional, organism-based
[13] = system: Penicillium chrysogenum; test: Antifungal activity against Penicillium notatum Tu 136 at 1 mg/ml after 48 hrs by disk diffusion assay; assay type: functional, organism-based

## CCCCCCCCCCCCCCCCCc1c(C)c(O)cc2c1[nH]c1ccccc12
[1]
  Activity: inactive
[2]
  IC50: 10.5 µM
[3]
  Activity: inactive
[4]
  Activity: inactive
[5]
  Activity: inactive
[6]
  Activity: inactive
[7]
  Activity: inactive
[8]
  Activity: inactive
[9]
  Activity: inactive
[10]
  Activity: inactive
[11]
  Activity: inactive
[12]
  Activity: inactive
[13]
  Activity: inactive

## CC/C=C\C/C=C\C/C=C\CCCCCCCc1c(C)c(O)cc2c1[nH]c1ccccc12
[1]
  Activity: inactive
[3]
  Activity: inactive
[4]
  Activity: inactive
[5]
  Activity: inactive
[6]
  Activity: inactive
[7]
  Activity: inactive
[8]
  Activity: inactive
[9]
  Activity: inactive
[10]
  Activity: inactive
[11]
  Activity: inactive
[12]
  Activity: inactive
[13]
  Activity: inactive

## CCCOC(=O)c1cc(O)c(O)c(O)c1 [PROPYL GALLATE]
[2]
  IC50: 4.4 µM

## CCCCC/C=C\C/C=C\CCCCCCCc1c(C)c(O)cc2c1[nH]c1ccccc12
[1]
  Activity: inactive
[3]
  Activity: inactive
[4]
  Activity: inactive
[5]
  Activity: inactive
[6]
  Activity: inactive
[7]
  Activity: inactive
[8]
  Activity: inactive
[9]
  Activity: inactive
[10]
  Activity: inactive
[11]
  Activity: inactive
[12]
  Activity: inactive
[13]
  Activity: inactive

## O=C1O[C@H]([C@@H](O)CO)C(O)=C1O [ASCORBIC ACID]
[2]
  IC50: 13.4 µM

## CCCCCCCC/C=C\CCCCCCCc1c(C)c(O)cc2c1[nH]c1ccccc12 [LIPOCARBAZOLE A3]
[1]
  Activity: inactive
[2]
  IC50: 8.7 µM
[3]
  Activity: inactive
[4]
  Activity: inactive
[5]
  Activity: inactive
[6]
  Activity: inactive
[7]
  Activity: inactive
[8]
  Activity: inactive
[9]
  Activity: inactive
[10]
  Activity: inactive
[11]
  Activity: inactive
[12]
  Activity: inactive
[13]
  Activity: inactive
